The text below walks through data of paper PMC3265476, “Functional Characterization of MODY2 Mutations Highlights the Importance of the Fine-Tuning of Glucokinase and Its Role in Glucose Sensing” (PLoS ONE, 2012).

SMILES strings stand for the structures. Positions count from the first letter of the chain named.

Holding throughout (test): Inhibition of glucokinase activity by palmitoyl-CoA, Dixon plots
Holding throughout (type): biochemical

The target in one assay is T1, GST-GK(p.Gly223Ser) (Homo sapiens, UniProt P35557, G223S).
T1 construct: made in house; host or cells: E. coli
T1 sequence (P35557 1-465 G223S): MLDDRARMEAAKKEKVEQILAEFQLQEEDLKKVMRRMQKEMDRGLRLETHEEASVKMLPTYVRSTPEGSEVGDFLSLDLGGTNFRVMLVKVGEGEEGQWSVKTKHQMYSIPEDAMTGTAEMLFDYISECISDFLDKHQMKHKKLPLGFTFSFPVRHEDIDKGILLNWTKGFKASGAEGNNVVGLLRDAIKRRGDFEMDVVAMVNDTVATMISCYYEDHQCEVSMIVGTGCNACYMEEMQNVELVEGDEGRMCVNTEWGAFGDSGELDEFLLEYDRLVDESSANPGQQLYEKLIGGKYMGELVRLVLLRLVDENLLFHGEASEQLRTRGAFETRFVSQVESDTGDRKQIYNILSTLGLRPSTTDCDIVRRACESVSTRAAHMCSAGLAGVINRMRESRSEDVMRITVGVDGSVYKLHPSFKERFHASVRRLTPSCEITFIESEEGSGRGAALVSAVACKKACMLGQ
To be noted: glucose 12.5, 25 and 50 mM; read-out: I50 for palmitoyl-CoA. The procedure: (§1) Glucokinase activity was measured spectrophotometrically on a spectrophotometer Uviconxl (Secoman), using an NADP^+-coupled assay with glucose-6-phosphate dehydrogenase, as described previously. The final reaction mixture contained 100 mM Tris pH 7.4, 150 mM KCl, 1 mM MgCl2, 1.4 mM ß-mercaptoethanol, 0.1% BSA, 5 mM ATP-MgCl2, 1 mM NADP^+, and 1 U/ml glucose-6-phosphate dehydrogenase. Determination of kinetic parameters and thermal stability tests were performed as in [20]. […] Inhibition by NAG and MH was determined under standard assay conditions with 50 nM glucokinase. The inhibition by palmitoylCoA was determined in reaction mixtures containing 25 mM Hepes pH 7.1; 25 mM KCl; 1 mM NADP, 1 mM ATP-MgCl2; 2.5 mM MgCl2; 5 mM ß-mercaptoethanol, 1 U/ml glucose-6-phosphate dehydrogenase and 61 nM glucokinase. Due to the low Kcat value of mutant GST-GK(pAla449Thr), the amount of protein used in inhibition assays was 180 nM to get sufficient activity to allow for accurate determination of the inhibitor effect. In these conditions, GK activity (U/mg of GST-GK(pAla449Thr)) in the absence of inhibitors was 1.3±0.08, 1.1±0.06 and 0.9±0.05 at 2, 1.5 and 1 mM of glucose, respectively for NAG and MH assays and 0.5±0.05, 0.33±0.03 and 0.27±0.03 at 2, 1.5 and 1 mM glucose, respectively for palmitoyl-CoA assay.

In the next assay the target is T2, GST-GK(p.Ala449Thr) (Homo sapiens, UniProt P35557, A449T).
T2 construct: made in house; host or cells: E. coli
T2 sequence (P35557 1-465 A449T): T1 sequence (P35557 1-465 G223S) with S223G, A449T
On the procedure: as §1

The target of the next assay is T3, Wild-type GST-GK (Homo sapiens, UniProt P35557).
T3 construct: made in house; host or cells: E. coli
T3 sequence (P35557 1-465): T1 sequence (P35557 1-465 G223S) with S223G
To be noted: glucose 2, 5 and 8 mM; 61 nM glucokinase; read-out: I50 for palmitoyl-CoA. On the procedure:
as §1

On to `CCCCCCCCCCCCCCCC(=O)SCCNC(=O)CCNC(=O)[C@H](O)C(C)(C)COP(=O)(O)OP(=O)(O)OC[C@H]1O[C@@H](n2cnc3c(N)ncnc32)[C@H](O)[C@@H]1OP(=O)(O)O` [palmitoyl-CoA], for which the IC50 on GST-GK(p.Gly223Ser) came out at 1420 ± 130 nM; on GST-GK(p.Ala449Thr) (glucose 1, 1.5 and 2 mM, 180 nM protein, read-out: I50 for palmitoyl-CoA) it was 2240 ± 140 nM; on Wild-type GST-GK, 3060 ± 270 nM. The “decrease of I50 for palmitoyl-CoA vs wild type” value on GST-GK(p.Ala449Thr) is ~26%.
